This is an account of results in patent US8569301B2, “6, 6-dioxo-6-thia-1, 4-diaza-naphthalenes as herbicides” (Syngenta Limited, priority 2009, dated 2013).

Holding throughout (type): in vivo
The test system of test [1] is crop and representative weed species. Put plainly: Example B2 herbicidal action post-emergence (Table B2). Conditions: application post-emergence, rate 500 g/ha, evaluated after 15 days, score 10 to 0; for herbicidal damage score AMARE (10=total damage to plant; 0=no damage to plant): AMARE = Amaranthus retroflexus; for herbicidal damage score ECHCG (10=total damage to plant; 0=no damage to plant): ECHCG = Echinochloa crus-galli; for herbicidal damage score IPOHE (10=total damage to plant; 0=no damage to plant): IPOHE = Ipomea hederaceae; for herbicidal damage score SETFA (10=total damage to plant; 0=no damage to plant): SETFA = Setaria faberi. The protocol:
Seeds of crop and representative weed species were sown in standard soil in pots. After cultivation for 14 days under controlled conditions in a glasshouse (at 22/16° C., day/night; 16 hours light; 65% humidity), the plants were sprayed. The spray solution was prepared by dissolving the technical active ingredient in acetone containing 10.56 wt % Emulsogen EL, 42.22 wt % N-methylpyrrolidone and 2.22 wt % DPG-monoethyl ether to give a 5% stock solution. This was then diluted with water containing 0.2% (v/v) of the adjuvant X-77 to give the desired treatment concentration.
The test plants were then grown on under controlled conditions in a glasshouse (at 22/16° C., day/night; 16 hours light; 65% humidity) and watered twice daily. After 15 days the test was evaluated and the assessed scores, from 10 to 0, are tabulated in Table B2 (10=total damage to plant; 0=no damage to plant).

Test [2] concerns SOLNI. Put plainly: Example B1 herbicidal action post-emergence, SOLNI. The following applies: sprayed after 8 days cultivation, evaluated after 13 days, scores from 10 to 0 (10=total damage to plant; 0=no damage to plant). The protocol:
(§1) Seeds of a variety of test species were sown in standard soil in pots. After 8 days cultivation (post-emergence) under controlled conditions in a glasshouse (at 24/16° C., day/night; 14 hours light; 65% humidity), the plants were sprayed with an aqueous spray solution derived from the formulation of the technical active ingredient in acetone/water (50:50) solution containing 0.5% Tween 20 (polyoxyethelyene sorbitan monolaurate, CAS RN 9005-64-5). The test plants were then grown under controlled conditions in a glasshouse (at 24/16° C., day/night; 14 hours light; 65% humidity) and watered twice daily. After 13 days, the test was evaluated and the assessed scores, from 10 to 0, are tabulated in Table B1 (10=total damage to plant; 0=no damage to plant).

In test [3] the test system is AMARE. In words: Example B1 herbicidal action post-emergence, AMARE. Conditions: sprayed after 8 days cultivation, evaluated after 13 days, scores from 10 to 0 (10=total damage to plant; 0=no damage to plant). The protocol: as §1
Test [4] relates to SETFA. In words: Example B1 herbicidal action post-emergence, SETFA. The following applies: sprayed after 8 days cultivation, evaluated after 13 days, scores from 10 to 0 (10=total damage to plant; 0=no damage to plant). As for the experimental part:
as §1

Test [5] has as its system ECHCG. Put plainly: Example B1 herbicidal action post-emergence, ECHCG. The following applies: sprayed after 8 days cultivation, evaluated after 13 days, scores from 10 to 0 (10=total damage to plant; 0=no damage to plant). As for the experimental part:
as §1

In test [6] the test system is IPOHE. Put plainly: Example B1 herbicidal action post-emergence, IPOHE. Conditions: sprayed after 8 days cultivation, evaluated after 13 days, scores from 10 to 0 (10=total damage to plant; 0=no damage to plant). The protocol:
as §1

Consider `C#CCC1c2nccnc2C(O)=C(c2c(F)ccc(Br)c2Cl)S1(=O)=O` (stereo not shown) [Compound E8], for which, in test [1], the “herbicidal damage score AMARE (10=total damage to plant; 0=no damage to plant)” value is 8, the “herbicidal damage score ECHCG (10=total damage to plant; 0=no damage to plant)” value is 6, the “herbicidal damage score IPOHE (10=total damage to plant; 0=no damage to plant)” value was 9 and the “herbicidal damage score SETFA (10=total damage to plant; 0=no damage to plant)” value is on record as 6.
As to `C=CCC1c2nccnc2C(O)=C(c2c(F)ccc(Br)c2Cl)S1(=O)=O` (stereo not shown) [Compound E20], in test [1], the “herbicidal damage score AMARE (10=total damage to plant; 0=no damage to plant)” value was determined as 7, the “herbicidal damage score ECHCG (10=total damage to plant; 0=no damage to plant)” value was found to be 2, the “herbicidal damage score IPOHE (10=total damage to plant; 0=no damage to plant)” value was found to be 7 and the “herbicidal damage score SETFA (10=total damage to plant; 0=no damage to plant)” value came out at 4.
Consider `CCCC1c2nccnc2C(O)=C(c2c(F)ccc(Br)c2Cl)S1(=O)=O` (stereo not shown) [Compound E22], for which, in test [1], the “herbicidal damage score AMARE (10=total damage to plant; 0=no damage to plant)” value is 7, the “herbicidal damage score ECHCG (10=total damage to plant; 0=no damage to plant)” value came to 0, the “herbicidal damage score IPOHE (10=total damage to plant; 0=no damage to plant)” value came to 7 and the “herbicidal damage score SETFA (10=total damage to plant; 0=no damage to plant)” value came out at 2.
For the compound `CC1(C)c2nccnc2C(O)=C(c2cc(F)ccc2Cl)S1(=O)=O` [Compound F3], in test [1], the “herbicidal damage score AMARE (10=total damage to plant; 0=no damage to plant)” value was found to be 7, the “herbicidal damage score ECHCG (10=total damage to plant; 0=no damage to plant)” value is 4, the “herbicidal damage score IPOHE (10=total damage to plant; 0=no damage to plant)” value was determined as 8 and the “herbicidal damage score SETFA (10=total damage to plant; 0=no damage to plant)” value is given as 4.
`O=S1(=O)C(c2c(Cl)cccc2C(F)(F)F)=C(O)c2nccnc2C12CC2` [Compound F4]: the “assessed score, application post-emergence, SOLNI” value (shortened to “assessed score … SOLNI”) in test [2] (Rate 1000 g/ha) amounted to 9. Further, the “assessed score, application post-emergence, AMARE” value (from here on “assessed score … AMARE”) in test [3] (Rate 1000 g/ha) is on record as 9. For the same compound, in test [4] (Rate 1000 g/ha), the “assessed score, application post-emergence, SETFA” value (“assessed score … SETFA” for short) stood at 8. Also, in test [5] (Rate 1000 g/ha), the “assessed score, application post-emergence, ECHCG” value (“assessed score … ECHCG” for short) amounted to 6. The “assessed score, application post-emergence, IPOHE” value (“assessed score … IPOHE” for short) in test [6] (Rate 1000 g/ha) is 7.
As to `CC1(C)c2nccnc2C(O)=C(c2cc(Cl)ccc2C(F)(F)F)S1(=O)=O` [Compound F5], the “assessed score … SOLNI” value in test [2] (Rate 1000 g/ha) came to 10. In addition, in test [3] (Rate 1000 g/ha), the “assessed score … AMARE” value turned out to be 10. Also, the “assessed score … SETFA” value in test [4] (Rate 1000 g/ha) was 6. Further, the “assessed score … ECHCG” value in test [5] (Rate 1000 g/ha) turned out to be 8. Also, the “assessed score … IPOHE” value in test [6] (Rate 1000 g/ha) amounted to 9.
In the case of `CC1(C)c2nccnc2C(O)=C(c2ccc(Br)cc2C(F)(F)F)S1(=O)=O` [Compound F6], the “assessed score … SOLNI” value in test [2] (Rate 250 g/ha) was found to be 9. The “assessed score … AMARE” value in test [3] (Rate 250 g/ha) is 9. For the same compound, the “assessed score … SETFA” value in test [4] (Rate 250 g/ha) is recorded as 8. The “assessed score … ECHCG” value in test [5] (Rate 250 g/ha) was 9. Moreover, the “assessed score … IPOHE” value in test [6] (Rate 250 g/ha) is recorded as 8.
For the compound `O=S1(=O)C(c2c(F)ccc(Br)c2Cl)=C(O)c2nccnc2C12CCC2` [Compound F7], the “assessed score … SOLNI” value in test [2] (Rate 1000 g/ha) was found to be 5. The “assessed score … AMARE” value in test [3] (Rate 1000 g/ha) is recorded as 4. Moreover, the “assessed score … SETFA” value in test [4] (Rate 1000 g/ha) is reported as 1. Besides, in test [5] (Rate 1000 g/ha), the “assessed score … ECHCG” value is listed as 1. Also, in test [6] (Rate 1000 g/ha), the “assessed score … IPOHE” value is listed as 6.
On to `O=S1(=O)C(c2c(F)ccc(Br)c2Cl)=C(O)c2nccnc2C12CCCC2` [Compound F8], for which, in test [1], the “herbicidal damage score AMARE (10=total damage to plant; 0=no damage to plant)” value is given as 5, the “herbicidal damage score ECHCG (10=total damage to plant; 0=no damage to plant)” value is listed as 6, the “herbicidal damage score IPOHE (10=total damage to plant; 0=no damage to plant)” value was determined as 8 and the “herbicidal damage score SETFA (10=total damage to plant; 0=no damage to plant)” value was found to be 5.
As for `CC1(C)c2nccnc2C(O)=C(c2c(Cl)cccc2C(F)(F)F)S1(=O)=O` [Compound F9], the “assessed score … SOLNI” value in test [2] (Rate 1000 g/ha) was 8. The “assessed score … AMARE” value in test [3] (Rate 1000 g/ha) was 9. Moreover, the “assessed score … SETFA” value in test [4] (Rate 1000 g/ha) is on record as 8. Besides, the “assessed score … ECHCG” value in test [5] (Rate 1000 g/ha) came to 8. In test [6] (Rate 1000 g/ha), the “assessed score … IPOHE” value amounted to 9.
`C#CCC1(C)c2nccnc2C(O)=C(c2c(Cl)cccc2C(F)(F)F)S1(=O)=O` (stereo not shown) [Compound F10, 7-(2-chloro-6-trifluoromethyl-phenyl)-5-methyl-6,6-dioxo-5-prop-2-ynyl-5,6-dihydro-6-thia-1,4-diaza-naphthalen-8-ol]: in test [1], the “herbicidal damage score AMARE (10=total damage to plant; 0=no damage to plant)” value is reported as 8, the “herbicidal damage score ECHCG (10=total damage to plant; 0=no damage to plant)” value stood at 7, the “herbicidal damage score IPOHE (10=total damage to plant; 0=no damage to plant)” value worked out at 9 and the “herbicidal damage score SETFA (10=total damage to plant; 0=no damage to plant)” value is on record as 8.
`O=S1(=O)C(c2cc(Cl)ccc2C(F)(F)F)=C(O)c2nccnc2C12CC2` [Compound F11, 7-(5-chloro-2-trifluoromethyl-phenyl)-5,5-cyclopropyl-6,6-dioxo-5,6-dihydro-6-thia-1,4-diaza-naphthalen-8-ol]: in test [2] (Rate 1000 g/ha), the “assessed score … SOLNI” value was 7. The “assessed score … AMARE” value in test [3] (Rate 1000 g/ha) was determined as 6. Besides, the “assessed score … SETFA” value in test [4] (Rate 1000 g/ha) is given as 2. The “assessed score … ECHCG” value in test [5] (Rate 1000 g/ha) came to 3. In test [6] (Rate 1000 g/ha), the “assessed score … IPOHE” value is listed as 7.
As for `CCOCOC1=C(c2cc(Cl)ccc2C(F)(F)F)S(=O)(=O)Cc2nccnc21` [Compound X1, 7-(5-chloro-2-trifluoromethyl-phenyl)-8-ethoxymethoxy-5H-6-thia-1,4-diaza-naphthalene 6,6-dioxide], the “assessed score … SOLNI” value in test [2] (Rate 1000 g/ha) was found to be 8. Besides, the “assessed score … AMARE” value in test [3] (Rate 1000 g/ha) worked out at 6. In test [4] (Rate 1000 g/ha), the “assessed score … SETFA” value is 6. Also, the “assessed score … ECHCG” value in test [5] (Rate 1000 g/ha) is 2. Moreover, the “assessed score … IPOHE” value in test [6] (Rate 1000 g/ha) is 7.
Turning to `CC(C)C(=O)OC1=C(c2c(F)ccc(Br)c2Cl)S(=O)(=O)Cc2nccnc21` [Compound X2, isobutyric acid 7-(3-bromo-2-chloro-6-fluoro-phenyl)-6,6-dioxo-5,6-dihydro-6-thia-1,4-diaza-naphthalen-8-yl ester], in test [2] (Rate 1000 g/ha), the “assessed score … SOLNI” value is listed as 10. The “assessed score … AMARE” value in test [3] (Rate 1000 g/ha) was found to be 10. Besides, the “assessed score … SETFA” value in test [4] (Rate 1000 g/ha) was found to be 8. Also, the “assessed score … ECHCG” value in test [5] (Rate 1000 g/ha) was determined as 8. Moreover, the “assessed score … IPOHE” value in test [6] (Rate 1000 g/ha) is recorded as 8.
